Results as given in PubChem BioAssay (NCI).
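Briefly, cells in 96-well plates were exposed to five compound concentrations for 48 h, and endpoints were estimated by linear interpolation. GI50 is the concentration that inhibits growth by half. Definition used: TGI = concentration required for complete inhibition of growth.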

Legend:
Experiment in all cases: growth of human tumour cells (NCI), 48 h
RPMI-8226 leukemia = tested on: RPMI-8226 leukemia
HOP-92 NSCLC = tested on: HOP-92 NSCLC
U251 CNS = tested on: U251 CNS
TK-10 renal = tested on: TK-10 renal
786-0 renal = tested on: 786-0 renal
LOX IMVI melanoma = tested on: LOX IMVI melanoma
SK-MEL-2 melanoma = tested on: SK-MEL-2 melanoma
SK-MEL-5 melanoma = tested on: SK-MEL-5 melanoma
UACC-257 melanoma = tested on: UACC-257 melanoma
RXF 393 renal = tested on: RXF 393 renal
SK-MEL-28 melanoma = tested on: SK-MEL-28 melanoma
MALME-3M melanoma = tested on: MALME-3M melanoma
SF-295 CNS = tested on: SF-295 CNS
K-562 leukemia = tested on: K-562 leukemia
UO-31 renal = tested on: UO-31 renal
M14 melanoma = tested on: M14 melanoma
SF-539 CNS = tested on: SF-539 CNS
NCI-H460 lung = tested on: NCI-H460 lung
SW-620 colon = tested on: SW-620 colon
BT-549 breast = tested on: BT-549 breast
UACC-62 melanoma = tested on: UACC-62 melanoma
NCI-H23 lung = tested on: NCI-H23 lung
SN12C renal = tested on: SN12C renal
CAKI-1 renal = tested on: CAKI-1 renal
SF-268 CNS = tested on: SF-268 CNS
HCC-2998 colon = tested on: HCC-2998 colon
SR leukemia = tested on: SR leukemia
COLO 205 colon = tested on: COLO 205 colon
OVCAR-8 ovarian = tested on: OVCAR-8 ovarian
SNB-75 CNS = tested on: SNB-75 CNS
A498 renal = tested on: A498 renal
HT29 colon = tested on: HT29 colon

O=C(Nc1ccc2cc3ccc(NC(=O)N4CCCCCC4)cc3nc2c1)N1CCCCCC1
GI50 (RPMI-8226 leukemia): 315 nM
TGI (RPMI-8226 leukemia): 1020 nM
GI50 (HOP-92 NSCLC): 1570 nM
TGI (HOP-92 NSCLC): 3280 nM
GI50 (U251 CNS): 534 nM
TGI (U251 CNS): 1810 nM
GI50 (TK-10 renal): 1920 nM
TGI (TK-10 renal): 3460 nM
GI50 (786-0 renal): 344 nM
TGI (786-0 renal): 1280 nM
GI50 (LOX IMVI melanoma): 1420 nM
TGI (LOX IMVI melanoma): 2750 nM
GI50 (SK-MEL-2 melanoma): 1620 nM
TGI (SK-MEL-2 melanoma): 3140 nM
GI50 (SK-MEL-5 melanoma): 1480 nM
TGI (SK-MEL-5 melanoma): 2810 nM
GI50 (UACC-257 melanoma): 1810 nM
TGI (UACC-257 melanoma): 3360 nM
GI50 (RXF 393 renal): 219 nM
TGI (RXF 393 renal): 505 nM
GI50 (SK-MEL-28 melanoma): 1320 nM
TGI (SK-MEL-28 melanoma): 2670 nM
GI50 (MALME-3M melanoma): 1130 nM
TGI (MALME-3M melanoma): 2530 nM
GI50 (SF-295 CNS): 783 nM
TGI (SF-295 CNS): 2120 nM
GI50 (K-562 leukemia): 350 nM
TGI (K-562 leukemia): 1230 nM
GI50 (UO-31 renal): 1660 nM
TGI (UO-31 renal): 3040 nM
GI50 (M14 melanoma): 1320 nM
TGI (M14 melanoma): 2780 nM
GI50 (SF-539 CNS): 841 nM
TGI (SF-539 CNS): 2090 nM

C=CC(=O)N1CC2(CC(n3nc(-c4ccc(Oc5ccccc5)cc4)c4c(N)ncnc43)C2)C1
GI50 (NCI-H460 lung): > 100000 nM
TGI (NCI-H460 lung): > 100000 nM
GI50 (SW-620 colon): > 100000 nM
TGI (SW-620 colon): > 100000 nM
GI50 (BT-549 breast): 1400 nM
TGI (BT-549 breast): > 100000 nM
GI50 (UACC-62 melanoma): 1720 nM
TGI (UACC-62 melanoma): > 100000 nM
GI50 (NCI-H23 lung): > 100000 nM
TGI (NCI-H23 lung): > 100000 nM
GI50 (SN12C renal): 780 nM
TGI (SN12C renal): > 100000 nM
GI50 (UACC-257 melanoma): 1970 nM
TGI (UACC-257 melanoma): > 100000 nM
GI50 (CAKI-1 renal): 1040 nM
TGI (CAKI-1 renal): > 100000 nM
GI50 (SF-268 CNS): 1430 nM
TGI (SF-268 CNS): > 100000 nM
GI50 (HCC-2998 colon): > 100000 nM
TGI (HCC-2998 colon): > 100000 nM
GI50 (SR leukemia): 6450 nM
TGI (SR leukemia): > 100000 nM
GI50 (COLO 205 colon): 1460 nM
TGI (COLO 205 colon): > 100000 nM
GI50 (SF-295 CNS): > 100000 nM
TGI (SF-295 CNS): > 100000 nM
GI50 (K-562 leukemia): 1190 nM
TGI (K-562 leukemia): > 100000 nM
GI50 (M14 melanoma): 2230 nM
TGI (M14 melanoma): > 100000 nM

CCN(CC)CCNC(=O)c1cc(Cl)c(N)cc1OC
GI50 (OVCAR-8 ovarian): 28400 nM
TGI (OVCAR-8 ovarian): 46200 nM
GI50 (SNB-75 CNS): 50200 nM
GI50 (A498 renal): 11100 nM
TGI (A498 renal): 40100 nM
GI50 (HT29 colon): 20800 nM
TGI (HT29 colon): 38700 nM
GI50 (NCI-H460 lung): 23500 nM
TGI (NCI-H460 lung): 45800 nM
GI50 (BT-549 breast): 82300 nM
GI50 (SK-MEL-5 melanoma): 99600 nM
GI50 (UACC-257 melanoma): 13900 nM
TGI (UACC-257 melanoma): 19400 nM
GI50 (SF-295 CNS): 25300 nM
TGI (SF-295 CNS): 44200 nM
GI50 (K-562 leukemia): 56500 nM
GI50 (UO-31 renal): 99100 nM
